Measured values from patent US11673876B2, “Substituted aminobenzyl heteroaryl compounds as EGFR and/or PI3K inhibitors” (Mekanistic Therapeutics LLC, priority 2020, dated 2023).

Key:
Format in all cases: biochemical
EGFR = EGFR (Homo sapiens (Human), UniProt P00533); experiment: Z'-LYTE / Adapta kinase assay, EGFR; conditions: read-out: EGFR % Inh. @ 100 nM
Source text: (§1) The Z′-LYTE® biochemical assay employs a fluorescence-based, coupled-enzyme format and is based on the differential sensitivity of phosphorylated and non-phosphorylated peptides to proteolytic cleavage (FIG. 6). The peptide substrate is labeled with two fluorophores one at each end—that make up a FRET pair. In the primary reaction, the kinase transfers the gamma-phosphate of ATP to a single tyrosine, serine or threonine residue in a synthetic FRET-peptide. In the secondary reaction, a site-specific protease recognizes and cleaves non-phosphorylated FRET-peptides. Phosphorylation of FRET-peptides suppresses cleavage by the Development Reagent. Cleavage disrupts FRET between the donor (i.e., coumarin) and acceptor (i.e., fluorescein) fluorophores on the FRET-peptide, whereas uncleaved, phosphorylated FRET-peptides maintain FRET. A ratiometric method, which calculates the ratio (the Emission Ratio) of donor emission to acceptor emission after excitation of the donor fluorophore at 400 nm, is used to quantitate reaction progress.
(§2) A significant benefit of this ratiometric method for quantitating reaction progress is the elimination of well-to-well variations in FRET-peptide concentration and signal intensities. As a result, the assay yields very high Z′-factor values (>0.7) at a low percent phosphorylation.
(§3) Both cleaved and uncleaved FRET-peptides contribute to the fluorescence signals and therefore to the Emission Ratio. The extent of phosphorylation of the FRET-peptide can be calculated from the Emission Ratio.
(§4) Enzyme: The ADAPTA universal kinase assay is a homogenous, fluorescent based immunoassay for the detection of ADP. In contrast to ATP depletion assays, the ADAPTA assay is extremely sensitive to ADP formation such that a majority of the signal change occurs in the first 10-20% conversion of ATP to ADP. This makes the ADAPTA universal kinase assay ideally suited for use with low activity kinases.
(§5) The principle of the ADAPTA universal kinase assay is outlined below. The assay itself can be divided into two phases: a kinase reaction phase, and an ADP detection phase. In the kinase reaction phase, all components required for the kinase reaction are added to the well, and the reaction is allowed to incubate for 60 minutes.
(§6) Z′-LYTE® Assay Conditions:
(§7) Test Compounds: The Test Compounds are screened in 1% DMSO (final) in the well. For 10 point titrations, 3-fold serial dilutions are conducted from the starting concentration.
(§8) Peptide/Kinase Mixtures: All Peptide/Kinase Mixtures are diluted to a 2× working concentration in the appropriate Kinase Buffer.
(§9) ATP Solution: All ATP Solutions are diluted to a 4× working concentration in Kinase Buffer (50 mM HEPES pH 7.5, 0.01% BRIJ-35, 10 mM MgCl2, 1 mM EGTA). ATP Km apparent is previously determined using a Z′-LYTE® assay.
(§10) Development Reagent Solution: The Development Reagent is diluted in Development Buffer. […]
(§11) 2.5 μL—4× Test Compound or 100 nL 100× plus 2.4 μL kinase buffer. 2. 5 μL—2× Peptide/Kinase Mixture. 3. 2.5 μL—4× ATP Solution. 4. 30-second plate shake. 5. 60-minute Kinase Reaction incubation at room temperature. 6. 5 μL—Development Reagent Solution. 7. 30-second plate shake. 8. 60-minute Development Reaction incubation at room temperature. 9.

PI3Ka = PI3Ka (Homo sapiens (Human), UniProt P42336); experiment: Z'-LYTE / Adapta kinase assay, PI3Ka; conditions: read-out: PI3Ka % Inh. @ 100 nM
Source text: as §1, §2, §3, §4, §5, §6, §7, §8, §9, §10, §11

DNA-PK = DNA-PK (Homo sapiens (Human), UniProt P78527); experiment: Z'-LYTE / Adapta kinase assay, DNA-PK; conditions: read-out: DNA-PK % Inh. @ 100 nM
Source text: as §1, §2, §3, §4, §5, §6, §7, §8, §9, §10, §11

Chain of PI3Ka (P42336 whole entry): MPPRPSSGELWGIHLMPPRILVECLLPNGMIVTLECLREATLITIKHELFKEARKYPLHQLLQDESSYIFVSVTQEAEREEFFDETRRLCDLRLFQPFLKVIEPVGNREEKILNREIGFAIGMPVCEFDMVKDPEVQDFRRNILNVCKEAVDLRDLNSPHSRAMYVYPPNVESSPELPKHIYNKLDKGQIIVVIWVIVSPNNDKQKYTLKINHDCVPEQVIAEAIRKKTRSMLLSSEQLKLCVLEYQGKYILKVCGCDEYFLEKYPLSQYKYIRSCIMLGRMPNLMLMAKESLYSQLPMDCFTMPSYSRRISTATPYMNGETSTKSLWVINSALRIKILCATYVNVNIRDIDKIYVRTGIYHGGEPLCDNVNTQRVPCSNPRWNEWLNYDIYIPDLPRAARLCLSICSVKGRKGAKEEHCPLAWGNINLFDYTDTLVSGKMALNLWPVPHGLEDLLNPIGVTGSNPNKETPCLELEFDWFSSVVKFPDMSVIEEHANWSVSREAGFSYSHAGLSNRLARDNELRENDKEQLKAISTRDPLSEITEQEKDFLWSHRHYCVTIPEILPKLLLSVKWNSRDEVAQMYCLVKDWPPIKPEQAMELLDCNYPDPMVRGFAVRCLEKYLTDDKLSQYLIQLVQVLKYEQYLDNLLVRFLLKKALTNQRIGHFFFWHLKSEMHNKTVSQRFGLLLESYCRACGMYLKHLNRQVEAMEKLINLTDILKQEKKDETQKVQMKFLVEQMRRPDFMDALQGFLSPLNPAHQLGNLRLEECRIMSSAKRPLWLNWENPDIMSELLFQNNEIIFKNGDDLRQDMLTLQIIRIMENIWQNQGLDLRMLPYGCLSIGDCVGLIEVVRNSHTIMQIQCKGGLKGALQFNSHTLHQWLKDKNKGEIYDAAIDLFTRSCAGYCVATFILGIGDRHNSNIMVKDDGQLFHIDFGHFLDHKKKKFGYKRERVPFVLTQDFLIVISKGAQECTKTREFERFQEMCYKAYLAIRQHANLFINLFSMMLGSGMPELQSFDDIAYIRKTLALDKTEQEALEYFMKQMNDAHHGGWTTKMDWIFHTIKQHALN
Chain of PI3Ka (P27986 whole entry partner): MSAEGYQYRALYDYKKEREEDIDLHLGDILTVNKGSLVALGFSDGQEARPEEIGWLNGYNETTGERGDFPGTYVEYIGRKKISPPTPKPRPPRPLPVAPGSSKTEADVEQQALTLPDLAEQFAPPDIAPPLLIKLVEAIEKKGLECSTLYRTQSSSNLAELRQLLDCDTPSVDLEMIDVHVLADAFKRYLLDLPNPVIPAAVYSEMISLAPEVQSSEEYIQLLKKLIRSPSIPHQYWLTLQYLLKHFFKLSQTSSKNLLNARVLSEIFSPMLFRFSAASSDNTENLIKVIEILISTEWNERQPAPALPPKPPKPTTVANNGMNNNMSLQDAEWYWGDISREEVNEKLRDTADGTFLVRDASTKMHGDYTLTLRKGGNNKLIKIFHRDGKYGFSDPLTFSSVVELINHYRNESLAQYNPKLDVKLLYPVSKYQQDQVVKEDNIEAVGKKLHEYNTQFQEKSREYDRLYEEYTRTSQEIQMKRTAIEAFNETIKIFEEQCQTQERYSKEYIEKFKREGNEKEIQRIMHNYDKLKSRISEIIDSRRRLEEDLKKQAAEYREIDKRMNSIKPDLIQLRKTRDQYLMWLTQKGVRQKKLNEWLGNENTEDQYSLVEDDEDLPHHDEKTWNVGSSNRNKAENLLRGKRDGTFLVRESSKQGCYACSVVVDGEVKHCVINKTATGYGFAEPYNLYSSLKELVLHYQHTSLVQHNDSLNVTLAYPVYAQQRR
Chain of EGFR (P00533 25-1210): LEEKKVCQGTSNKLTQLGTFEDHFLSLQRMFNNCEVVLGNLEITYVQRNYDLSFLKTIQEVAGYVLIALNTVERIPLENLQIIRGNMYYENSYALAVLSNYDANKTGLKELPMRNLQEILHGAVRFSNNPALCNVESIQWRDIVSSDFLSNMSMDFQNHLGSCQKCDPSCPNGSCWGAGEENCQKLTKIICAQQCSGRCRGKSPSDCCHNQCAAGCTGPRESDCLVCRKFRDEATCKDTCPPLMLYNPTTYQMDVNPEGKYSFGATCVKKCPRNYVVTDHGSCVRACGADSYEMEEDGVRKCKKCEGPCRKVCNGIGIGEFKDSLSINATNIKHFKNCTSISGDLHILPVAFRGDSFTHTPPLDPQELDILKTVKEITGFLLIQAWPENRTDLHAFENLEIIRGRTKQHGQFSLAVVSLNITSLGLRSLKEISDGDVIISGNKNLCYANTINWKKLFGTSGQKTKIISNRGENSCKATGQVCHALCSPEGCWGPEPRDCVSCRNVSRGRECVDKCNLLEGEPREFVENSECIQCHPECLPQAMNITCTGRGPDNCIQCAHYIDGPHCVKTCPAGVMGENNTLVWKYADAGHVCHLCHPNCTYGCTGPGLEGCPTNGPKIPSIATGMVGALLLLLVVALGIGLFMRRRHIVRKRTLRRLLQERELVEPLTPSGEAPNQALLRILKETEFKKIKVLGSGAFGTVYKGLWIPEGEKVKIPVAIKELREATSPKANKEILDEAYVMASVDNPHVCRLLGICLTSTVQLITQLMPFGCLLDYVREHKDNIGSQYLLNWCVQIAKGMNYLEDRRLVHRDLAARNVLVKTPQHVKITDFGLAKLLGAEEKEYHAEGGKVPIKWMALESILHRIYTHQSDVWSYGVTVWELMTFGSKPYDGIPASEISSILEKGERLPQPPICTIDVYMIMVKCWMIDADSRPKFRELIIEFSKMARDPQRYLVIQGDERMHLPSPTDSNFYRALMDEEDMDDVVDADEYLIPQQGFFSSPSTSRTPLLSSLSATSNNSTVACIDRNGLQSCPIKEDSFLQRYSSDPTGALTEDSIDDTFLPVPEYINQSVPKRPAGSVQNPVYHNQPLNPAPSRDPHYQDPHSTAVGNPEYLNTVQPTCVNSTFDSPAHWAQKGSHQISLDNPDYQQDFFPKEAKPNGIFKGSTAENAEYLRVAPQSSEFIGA

inhibition at 0.1 µM (EGFR) [%] | inhibition at 0.1 µM (PI3Ka) [%] | inhibition at 0.1 µM (DNA-PK) [%] | Compound
10 to 80 | 10 to 80 | 10 to 80 | CC(Nc1ncnc2ccc(-c3cnc(N)c(C(=O)N(C)C)c3)cc12)c1ccccc1 (centres unmarked) [Compound 36, 2-amino-N, N-dimethyl-5-[4-(1-phenylethylamino)quinazolin-6-yl] pyridine-3-carboxamide]
> 90 | 10 to 80 | < 10 | CC(Nc1ncnc2ccc(-c3ccc4oc(N)nc4c3)cc12)c1ccccc1 (centres unmarked) [Compound 41, 5-[4-(1-phenylethylamino)quinazolin-6-yl]-1,3-benzoxazol-2-amine]
80 to 90 | 10 to 80 | 10 to 80 | C[C@@H](Nc1c(C#N)cnc2ccc(-c3cnc4[nH]ncc4c3)cc12)c1ccccc1 [Compound 54R, 4-[[(1R)-1-phenylethyl]amino]-6-(1H-pyrazolo [3,4-b]pyridin-5-yl) quinoline-3-carbonitrile]
10 to 80 | < 10 | 10 to 80 | CC(Nc1c(C#N)cnc2ccc(-c3cnc4[nH]ccc4c3)cc12)c1ccccc1 (centres unmarked) [Compound 55, 4-(1-phenylethylamino)-6-(1H-pyrrolo [2,3-b]pyridin-5-yl) quinoline-3-carbonitrile]
10 to 80 | 10 to 80 | 10 to 80 | Cc1nc2cc(-c3ccc4ncc(C#N)c(NC(C)c5ccccc5)c4c3)cnc2[nH]1 (centres unmarked) [Compound 56, 6-(2-methyl-3H-imidazo[4,5-b]pyridin-6-yl)-4-(1-phenylethylamino) quinoline-3-carbonitrile]

More lines, now with the values behind:

Compound | inhibition at 0.1 µM (EGFR) [%] | inhibition at 0.1 µM (PI3Ka) [%] | inhibition at 0.1 µM (DNA-PK) [%]
CC(Nc1ncnc2ccc(-c3cnc4[nH]ncc4c3)cc12)c1ccccc1 (centres unmarked) [Compound 8, N-(1-phenylethyl)-6-(1H-pyrazolo[3,4-b]pyridin-5-yl)quinazolin-4-amine] | 80 to 90 | 10 to 80 | 10 to 80
Cc1nc2cc(-c3ccc4ncnc(NC(C)c5ccccc5)c4c3)cnc2[nH]1 (centres unmarked) [Compound 10, 6-(2-methyl-1H-imidazo[4,5-b]pyridin-6-yl)-N-(1-phenylethyl)quinazolin-4-amine] | 80 to 90 | 10 to 80 | 10 to 80
CC(Nc1ncnc2ccc(-c3cncc(C(C)(C)O)c3)cc12)c1ccccc1 (centres unmarked) [Compound 21, 2-[5-[4-(1-phenylethylamino)quinazolin-6-yl]-3-pyridyl]propan-2-ol] | 80 to 90 | 10 to 80 | 10 to 80
CC(Nc1ncnc2ccc(-c3cnc4[nH]nnc4c3)cc12)c1ccccc1 (centres unmarked) [Compound 24, N-(1-phenylethyl)-6-(3H-triazolo[4,5-b]pyridin-6-yl)quinazolin-4-amine] | > 90 | 10 to 80 | 10 to 80
CC(Nc1ncnc2ccc(-c3cnc4cnn(C)c4c3)cc12)c1ccccc1 (centres unmarked) [Compound 27, 6-(1-methylpyrazolo[4,3-b]pyridin-6-yl)-N-(1-phenylethyl)quinazolin-4-amine] | 10 to 80 | < 10 | 10 to 80
CC(Nc1ncnc2ccc(-c3cnc(N)c(S(C)(=O)=O)c3)cc12)c1ccccc1 (centres unmarked) [Compound 31, 6-(6-amino-5-(methylsulfonyl)pyridin-3-yl)-N-(1-phenylethyl)quinazolin-4-amine] | > 90 | 80 to 90 | > 90
CC(Nc1ncnc2ccc(-c3cnc4cncn4c3)cc12)c1ccccc1 (centres unmarked) [Compound 34, 6-(imidazo[1,5-a]pyrimidin-3-yl)-N-(1-phenylethyl)quinazolin-4-amine] | > 90 | > 90 | 80 to 90
CS(=O)(=O)Nc1cc(-c2ccc3ncc(C#N)c(NC4c5ccccc5CC4O)c3c2)cnc1Cl (centres unmarked) [Compound 103, N-[2-chloro-5-[3-cyano-4-[(2-hydroxyindan-1-yl)amino]-6-quinolyl]-3-pyridyl]methanesulfonamide] | < 10 | – | > 90
